Measured values as given in publication PMC9863002, “Amino Derivatives of Diaryl Pyrimidines and Azolopyrimidines as Protective Agents against LPS-Induced Acute Lung Injury” (Molecules, 2023).

How the values were obtained:
Type in all cases: cell-based, C57bl/6j mice
[1] = test system: phagocytic activity of C57bl/6j peritoneal macrophages; test: Phagocytosis assay (yeast); details: 72 h of incubation
Method: Peritoneal macrophages of C57bl/6j mice were cultured in a 24-well plate at a volume of 500 µL/well (1 × 10^5 cells/mL) for 24 h. Test compounds or DMSO were added to wells in triplicate followed by 50 µL of 1% yeast suspension, and the plates were incubated for 40 min. After 24 or 72 h, the medium was removed. The cells were fixed with May–Grunwald methanol dye and stained with Azur–Eosin in Romanovsky’s modification for 45 min at room temperature, washed, air-dried, and analyzed using a microscope Mikmed-6 (Russia), equipped with a digital camera. The study was performed in three technical replicates and two series; 100 macrophages were processed in each sample to count the captured yeast cells. Macrophage spreading was assessed as a number of pseudopodia.

[2] = test system: IL-6 release in LPS-stimulated primary murine peritoneal macrophages; test: Inhibition of IL-6 release in LPS-stimulated macrophages (ELISA); details: Mus musculus, Peritoneal macrophage; LPS-stimulated (100 ng/mL E. coli LPS) peritoneal macrophages; n.a. = not active
Method: (§1) Peritoneal macrophages (PM) were isolated from the peritoneal exudate of 30 male C57bl/6j mice. To accumulate PM, 1 mL of 3% peptone solution was injected intraperitoneally. After 3 days, the mice were euthanized by cervical dislocation. Cells of peritoneal exudate were obtained by aseptic washing of the abdominal cavity with 5 mL of sterile Hanks’s solution (+4–6 °C) without calcium and magnesium ions. The total number and viability of cells were assessed in a Goryaev counting chamber (Russia) with a 0.4% trypan blue staining (Sigma-Aldrich, St. Louis, MO, USA). The cell concentration was adjusted to 1.0 × 10^6 cells/mL in DMEM (Gibco, Waltham, MA, USA) supplemented with 2 mM L-glutamine (Gibco), 10% heat-inactivated fetal bovine serum (BioClot, Bavaria, Germany), 100 U/mL penicillin, and […] streptomycin (Gibco) and plated 200 µL/well in 96-well transparent plates (SPL Life Sciences Co., Ltd., Pocheon-si, Republic of Korea). After 2 h at 37 °C in a humidified atmosphere with 5% CO2, the wells were washed to remove non-adherent cells. After 24 h of incubation, 20 µL of the supernatants were substituted with 20 µL of solutions of test compounds, followed by E. coli O127:B8 LPS (100 ng/mL final concentration) after 30 min. The experiments were run in 3 independent replicates.
The cell supernatant was collected and centrifuged at 1000× g for 20 min in a 2–16 PK centrifuge (Sigma, Osterode am Harz, Germany). The concentrations of IL-6 and TNF-alpha were determined by ELISA using commercial kits (Cloud-clone, Houston, TX, USA) with a microplate reader Infinite M200 PRO (Tecan, Grödig, Austria).

peritoneal macrophages = test: MTT cytotoxicity study
Method: as §1
(§2) The activity of lactate dehydrogenase (LDH) in a cell culture medium served as a marker of membrane permeability and cell death. Aliquots of supernatants were taken after 24 h of inoculation with test compounds, mixed with 250 µL of […] NADH solution in 54 mM phosphate-buffered saline (pH 7.5). Then, 25 µL of a 6.48 mM pyruvate solution was added to the mixture. The optical density was followed at a wavelength of 340 nm for 20 min. The MTT test was performed 24 h after incubations of cells with tested compounds. Briefly, 20 µL of MTT solution was added to each well and incubated at 37 °C in a humidified atmosphere containing 5% CO2 for 4 h. The culture medium was removed, the cells were lysed, and formazan crystals were dissolved in 150 µL DMSO. The plates were shaken at room temperature for 10 min, and the optical density was measured in a microplate reader Infinite M200 PRO (Tecan, Grödig, Austria) at a wavelength of 565 nm.

MTT cytotoxicity study = details: male, C57bl/6j, mouse; peritoneal macrophages, 24 h incubation
Method: as §1, §2

[3] = test system: NO synthesis in LPS-stimulated primary murine peritoneal macrophages; test: Inhibition of NO synthesis in LPS-stimulated macrophages (Griess); details: Mus musculus, Peritoneal macrophage; LPS-stimulated (100 ng/mL E. coli LPS) peritoneal macrophages, supernatants after 22 h; n.a. = not active
Method: as §1
The accumulation of the nitrite anion (a stable end product of NO decomposition) in supernatants was determined using a standard Griess reagent. Briefly, 50 µL of supernatants were collected 22 h after incubation of PM, and the test and control compounds were mixed with 50 µL of 1% sulfonamide in 2.5% H3PO4 and 50 µL of 0.1% N-(1-naphthyl) ethylenediamine in 2.5% H3PO4. After incubation at 23 °C for 10 min in an orbital shaker, the optical density was determined at a wavelength of 550 nm with a microplate reader Infinite M200 PRO (Tecan, Grödig, Austria).

## Nc1ccc(-c2cc(-c3ccc(N)cc3)n3ncnc3n2)cc1 [Compound 7c]
[1]
  macrophage phagocytic activity (number of phagocytes), in words: preserve macrophage phagocytic activity
  phagocytic capacity (number of yeast cells per macrophage), in words: significantly suppressed macrophage phagocytic capacity
[1]; vs DMSO
  decrease of the mean number of phagocytosed particles: 63%
[2]
  IC50: 2200 nM
Peritoneal macrophages
  cytotoxicity in the MTT test, in words: pronounced cytotoxicity
MTT cytotoxicity study
  CC50 at 24 h: 47.1 µM
[3]
  IC50: 15.2 µM
